Data as given in patent US20260365670A1, “EGFR INHIBITORS AND USES THEREOF” (DIZAL (JIANGSU) PHARMACEUTICAL CO., LTD., priority 2022, published 2026).
Where two headings read alike, the source gives them in different places.

Tests used:
EGFR (d746-750 C797S) = biological target: T1, EGFR (d746-750 C797S) (Homo sapiens, UniProt P00533, C797S/DEL746-750); assay: Inhibition of EGFR (d746-750 C797S) biochemical enzymatic activity (HTRF); conditions: EGFR (d746-750 C797S), 1 mM ATP, 1 h at room temperature
T1 construct: purchased signalchem
Method in brief: (§1)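 Phosphorylation of TK Substrate-biotin (1 μM) was measured at 1 mM ATP over a 1 h room-temperature incubation with serially varied compound. Detection was by HTRF ratio and analysis by 4PL fit to IC50.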

EGFR L858R = biological target: T2, EGFR L858R (Homo sapiens, UniProt P00533, L858R); assay: Inhibition of EGFR L858R biochemical enzymatic activity (HTRF); conditions: 1 mM ATP, 1 h at room temperature
T2 construct: purchased Carna Bio
Method in brief: as §1

EGFR L858R/T790M = biological target: T3, EGFR L858R/T790M (Homo sapiens, UniProt P00533, L858R/T790M); assay: Inhibition of EGFR L858R/T790M biochemical enzymatic activity (HTRF); conditions: EGFR L858R/T790M, 1 mM ATP, 1 h at room temperature
T3 construct: purchased Carna Bio
Method in brief: as §1

EGFR Exon19Del = biological target: T4, EGFR Exon19Del (Homo sapiens, UniProt P00533, DEL746-750); assay: Inhibition of EGFR Exon19Del biochemical enzymatic activity (HTRF); conditions: 1 mM ATP, 1 h at room temperature
T4 construct: purchased Carna Bio
Method in brief: as §1

EGFR[T790M/C797S/L858R] = biological target: T5, EGFR[T790M/C797S/L858R] (Homo sapiens, UniProt P00533, C797S/L858R/T790M); assay: Inhibition of EGFR[T790M/C797S/L858R] biochemical enzymatic activity (HTRF); conditions: EGFR[T790M/C797S/L858R], 1 mM ATP, 1 h at room temperature
T5 construct: purchased Carna Bio
Method in brief: as §1

EGFR Exon19Del/T790M = biological target: T6, EGFR Exon19Del/T790M (Homo sapiens, UniProt P00533, DEL746-750/T790M); assay: Inhibition of EGFR Exon19Del/T790M biochemical enzymatic activity (HTRF); conditions: EGFR Exon19Del/T790M, 1 mM ATP, 1 h at room temperature
T6 construct: purchased Carna Bio
Method in brief: as §1

EGFR (C797S L858R) = biological target: T7, EGFR (C797S L858R) (Homo sapiens, UniProt P00533, C797S/L858R); assay: Inhibition of EGFR (C797S L858R) biochemical enzymatic activity (HTRF); conditions: EGFR (C797S L858R), 1 mM ATP, 1 h at room temperature
T7 construct: purchased signalchem
Method in brief: as §1

PC-9 = assay: Cell proliferation assay, PC-9 cells (CellTiter-Glo, 72 hours); assay type: cell-based; conditions: PC9 cells, read-out: GI50 PC9
Method in brief: (§2)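 GI50 is the concentration giving 50% proliferation inhibition. Growth for this was normalised to a baseline viability reading taken when compound was added, and to DMSO wells. PC-9 (500 cells/well) and mutant-EGFR Ba/F3 (5000 cells/well) are treated after overnight seeding in RPMI1640-based medium.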

EGFR wild type = biological target: T8, EGFR wild type (Homo sapiens, UniProt P00533); assay: Inhibition of EGFR wild type biochemical enzymatic activity (HTRF); conditions: EGFR wild type, 1 mM ATP, 1 h at room temperature
T8 construct: purchased Carna Bio
Method in brief: as §1

[1] = test system: Ba/F3 cells expressing EGFR mutations; assay: Cell proliferation assay, Ba/F3 cells expressing EGFR mutations (CellTiter-Glo, 72 hours); assay type: cell-based
Method in brief: as §2

[2] = biological target: T9, EGFR[T790M/C797S/d746-750] (Homo sapiens, UniProt P00533, C797S/DEL746-750/T790M); assay: Inhibition of EGFR[T790M/C797S/d746-750] biochemical enzymatic activity (HTRF); conditions: 1 mM ATP, 1 h at room temperature
T9 construct: purchased Carna Bio
Method in brief: as §1

[3] = EGFR Exon19Del, read-out: IC50 @Del19
[4] = read-out: IC50 @T790M- C797S - L858R
[5] = EGFR[T790M/C797S/d746-750], read-out: IC50 @T790M - C797S - Del19
[6] = BaF3 cells, EGFR DEL19 - C797S, read-out: GI50 DEL19 - C797S/BaF3
[7] = BaF3 cells, EGFR DEL19 - T790-C797S, read-out: GI50 DEL19 - T790-C797S/BaF3
[8] = BaF3 cells, EGFR L858R - C797S, read-out: GI50 L858R - C797S/BaF3
[9] = BaF3 cells, EGFR L858R - T790-C797S, read-out: GI50 L858R - T790-C797S/BaF3
[10] = BaF3 cells, EGFR L858R - T790M, read-out: GI50 L858R - T790M/BaF3
[11] = BaF3 cells, EGFR L858R, read-out: GI50 L858R/BaF3
[12] = EGFR DEL19 - T790M, read-out: GI50 DEL19 - T790M

T7 sequence (P00533 25-1210 C797S/L858R): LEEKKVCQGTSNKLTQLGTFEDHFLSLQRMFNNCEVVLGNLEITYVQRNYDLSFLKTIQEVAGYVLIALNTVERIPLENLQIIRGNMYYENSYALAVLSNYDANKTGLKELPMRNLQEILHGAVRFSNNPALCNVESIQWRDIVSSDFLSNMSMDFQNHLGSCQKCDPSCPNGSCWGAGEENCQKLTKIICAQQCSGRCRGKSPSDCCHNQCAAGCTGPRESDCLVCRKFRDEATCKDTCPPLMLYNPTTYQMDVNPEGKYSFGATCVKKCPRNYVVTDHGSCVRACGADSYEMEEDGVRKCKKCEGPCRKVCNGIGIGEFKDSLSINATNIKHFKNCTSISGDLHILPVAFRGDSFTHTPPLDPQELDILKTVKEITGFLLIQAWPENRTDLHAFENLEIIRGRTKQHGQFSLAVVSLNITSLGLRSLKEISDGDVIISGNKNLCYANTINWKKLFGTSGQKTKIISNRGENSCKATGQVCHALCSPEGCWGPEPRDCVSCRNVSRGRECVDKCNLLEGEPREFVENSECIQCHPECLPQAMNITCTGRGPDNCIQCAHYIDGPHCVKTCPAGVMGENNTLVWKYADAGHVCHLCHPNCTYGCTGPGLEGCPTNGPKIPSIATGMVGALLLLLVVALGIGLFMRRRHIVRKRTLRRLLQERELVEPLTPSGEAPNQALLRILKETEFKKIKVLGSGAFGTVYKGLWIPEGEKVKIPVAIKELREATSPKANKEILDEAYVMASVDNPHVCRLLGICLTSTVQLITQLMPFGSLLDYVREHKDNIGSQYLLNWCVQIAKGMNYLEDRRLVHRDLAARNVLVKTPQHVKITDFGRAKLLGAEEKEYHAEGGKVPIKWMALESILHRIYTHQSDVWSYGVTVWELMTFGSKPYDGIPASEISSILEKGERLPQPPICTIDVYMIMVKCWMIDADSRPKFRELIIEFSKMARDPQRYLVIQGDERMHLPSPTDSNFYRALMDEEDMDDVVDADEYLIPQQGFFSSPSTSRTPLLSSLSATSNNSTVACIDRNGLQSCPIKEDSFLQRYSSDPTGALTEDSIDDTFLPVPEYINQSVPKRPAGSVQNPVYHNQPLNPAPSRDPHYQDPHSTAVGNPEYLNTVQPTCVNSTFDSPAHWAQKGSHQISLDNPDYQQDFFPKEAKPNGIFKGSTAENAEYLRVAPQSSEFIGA
T4 sequence (P00533 with tags, fused parts or gaps DEL746-750 limits assumed): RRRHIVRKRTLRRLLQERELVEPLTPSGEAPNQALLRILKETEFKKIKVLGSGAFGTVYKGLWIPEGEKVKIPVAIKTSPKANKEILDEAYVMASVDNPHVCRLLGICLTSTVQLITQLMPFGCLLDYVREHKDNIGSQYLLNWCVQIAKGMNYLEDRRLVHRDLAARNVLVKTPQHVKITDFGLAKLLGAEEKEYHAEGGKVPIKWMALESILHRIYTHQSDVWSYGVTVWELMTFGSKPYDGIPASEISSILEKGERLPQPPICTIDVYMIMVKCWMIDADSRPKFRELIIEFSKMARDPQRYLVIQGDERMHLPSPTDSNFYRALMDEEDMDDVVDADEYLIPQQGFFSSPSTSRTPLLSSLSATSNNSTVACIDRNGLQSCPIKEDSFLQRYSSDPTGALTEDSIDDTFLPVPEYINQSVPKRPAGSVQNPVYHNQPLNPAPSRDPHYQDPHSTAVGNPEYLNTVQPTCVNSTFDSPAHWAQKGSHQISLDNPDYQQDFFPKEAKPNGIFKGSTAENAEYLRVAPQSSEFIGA
T1 sequence (P00533 with tags, fused parts or gaps DEL746-750/C797S limits assumed): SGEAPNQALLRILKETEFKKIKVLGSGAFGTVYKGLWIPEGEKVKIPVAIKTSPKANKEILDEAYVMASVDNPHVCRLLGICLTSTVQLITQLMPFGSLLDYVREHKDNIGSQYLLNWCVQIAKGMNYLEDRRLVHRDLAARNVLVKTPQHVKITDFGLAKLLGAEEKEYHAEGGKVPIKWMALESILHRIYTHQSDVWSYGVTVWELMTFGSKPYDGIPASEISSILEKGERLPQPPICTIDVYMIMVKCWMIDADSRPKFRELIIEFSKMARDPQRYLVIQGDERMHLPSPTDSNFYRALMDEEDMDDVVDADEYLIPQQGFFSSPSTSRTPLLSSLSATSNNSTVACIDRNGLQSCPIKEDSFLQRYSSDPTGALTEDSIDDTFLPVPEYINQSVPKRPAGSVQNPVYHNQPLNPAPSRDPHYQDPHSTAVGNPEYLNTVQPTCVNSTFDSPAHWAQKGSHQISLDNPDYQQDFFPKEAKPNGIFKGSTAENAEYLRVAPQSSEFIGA
T6 sequence (P00533 with tags, fused parts or gaps DEL746-750/T790M limits assumed): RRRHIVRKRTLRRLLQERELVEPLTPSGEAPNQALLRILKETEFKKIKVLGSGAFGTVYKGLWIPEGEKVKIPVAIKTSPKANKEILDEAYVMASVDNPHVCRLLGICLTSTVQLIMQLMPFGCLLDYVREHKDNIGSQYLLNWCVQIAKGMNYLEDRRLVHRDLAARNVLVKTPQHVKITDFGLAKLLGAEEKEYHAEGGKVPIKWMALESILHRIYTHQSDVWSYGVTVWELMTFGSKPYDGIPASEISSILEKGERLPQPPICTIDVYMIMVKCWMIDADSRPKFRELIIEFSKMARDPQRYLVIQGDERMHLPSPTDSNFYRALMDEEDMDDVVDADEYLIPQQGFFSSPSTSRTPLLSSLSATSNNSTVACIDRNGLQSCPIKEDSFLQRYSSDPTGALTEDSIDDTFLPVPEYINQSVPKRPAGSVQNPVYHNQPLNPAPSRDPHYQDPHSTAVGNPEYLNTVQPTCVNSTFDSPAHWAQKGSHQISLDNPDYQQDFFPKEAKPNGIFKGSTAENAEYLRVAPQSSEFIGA
T2 sequence (P00533 25-1210 L858R): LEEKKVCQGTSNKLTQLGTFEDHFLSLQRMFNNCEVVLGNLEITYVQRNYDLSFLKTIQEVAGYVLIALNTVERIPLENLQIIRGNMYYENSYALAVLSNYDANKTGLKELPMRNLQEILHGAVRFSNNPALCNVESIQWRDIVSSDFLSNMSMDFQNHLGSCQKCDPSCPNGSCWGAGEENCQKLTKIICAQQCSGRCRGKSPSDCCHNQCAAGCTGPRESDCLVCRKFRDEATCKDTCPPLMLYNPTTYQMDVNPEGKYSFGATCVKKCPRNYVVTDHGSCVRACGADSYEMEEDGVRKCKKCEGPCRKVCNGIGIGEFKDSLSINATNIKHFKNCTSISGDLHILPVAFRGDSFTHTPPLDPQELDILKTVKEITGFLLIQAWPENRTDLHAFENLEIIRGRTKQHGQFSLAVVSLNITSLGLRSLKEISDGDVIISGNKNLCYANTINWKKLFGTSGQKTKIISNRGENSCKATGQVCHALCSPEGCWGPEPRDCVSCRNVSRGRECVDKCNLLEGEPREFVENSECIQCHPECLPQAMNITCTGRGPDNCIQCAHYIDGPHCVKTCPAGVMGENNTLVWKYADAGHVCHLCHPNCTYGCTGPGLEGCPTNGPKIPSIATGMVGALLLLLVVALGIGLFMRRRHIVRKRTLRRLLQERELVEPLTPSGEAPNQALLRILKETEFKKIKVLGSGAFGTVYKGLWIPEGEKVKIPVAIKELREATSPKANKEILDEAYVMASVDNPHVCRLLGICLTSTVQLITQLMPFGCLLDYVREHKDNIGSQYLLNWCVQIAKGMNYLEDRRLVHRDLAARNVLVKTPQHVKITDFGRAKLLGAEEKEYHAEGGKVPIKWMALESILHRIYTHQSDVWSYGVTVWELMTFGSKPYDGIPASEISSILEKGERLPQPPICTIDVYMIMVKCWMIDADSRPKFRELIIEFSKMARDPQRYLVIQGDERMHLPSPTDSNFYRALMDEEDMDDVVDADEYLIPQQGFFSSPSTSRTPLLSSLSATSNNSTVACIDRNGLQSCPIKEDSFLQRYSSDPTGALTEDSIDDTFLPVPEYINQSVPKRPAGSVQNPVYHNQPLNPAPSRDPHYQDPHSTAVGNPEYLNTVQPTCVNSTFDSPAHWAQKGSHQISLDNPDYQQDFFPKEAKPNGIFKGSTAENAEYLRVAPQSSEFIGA
T9 sequence (P00533 with tags, fused parts or gaps DEL746-750/T790M/C797S limits assumed): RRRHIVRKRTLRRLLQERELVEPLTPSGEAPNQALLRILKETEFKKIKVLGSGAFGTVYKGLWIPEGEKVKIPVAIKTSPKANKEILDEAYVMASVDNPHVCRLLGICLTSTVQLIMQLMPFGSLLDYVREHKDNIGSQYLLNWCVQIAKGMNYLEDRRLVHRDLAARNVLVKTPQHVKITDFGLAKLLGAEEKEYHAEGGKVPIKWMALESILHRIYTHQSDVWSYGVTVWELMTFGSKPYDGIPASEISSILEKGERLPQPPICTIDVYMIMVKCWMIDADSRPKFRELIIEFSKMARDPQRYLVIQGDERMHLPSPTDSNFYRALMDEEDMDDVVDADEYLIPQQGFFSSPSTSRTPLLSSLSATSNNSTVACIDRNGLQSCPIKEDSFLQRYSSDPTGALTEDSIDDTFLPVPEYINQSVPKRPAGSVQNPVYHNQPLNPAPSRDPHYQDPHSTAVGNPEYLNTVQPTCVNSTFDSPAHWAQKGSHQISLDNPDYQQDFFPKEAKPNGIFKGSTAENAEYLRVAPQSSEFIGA

Row | IC50 (EGFR (d746-750 C797S); read-out: IC50 @Del19-C797S) [nM] | IC50 (EGFR L858R; read-out: IC50 @L858R) [µM] | IC50 (EGFR L858R/T790M; read-out: IC50 @L858R-T790M) [µM] | IC50 (EGFR Exon19Del; [3]) [µM] | IC50 (EGFR[T790M/C797S/L858R]; [4]) [µM] | IC50 (EGFR Exon19Del/T790M; read-out: IC50 @Del19-T790M) [nM] | IC50 (EGFR (C797S L858R); read-out: IC50 @L858-C797S) [µM] | IC50 (EGFR wild type; read-out: IC50 @WT) [µM] | IC50 [2, 5] [nM] | GI50 (PC-9) [nM] | GI50 [1, 6] [nM] | GI50 [1, 7] [nM] | GI50 [1, 8] [nM] | GI50 [1, 9] [nM] | GI50 [1, 10] [nM] | GI50 [1, 11] [nM] | GI50 [1, 12] [nM] | SMILES | also measured
1 | 454 | > 5 | > 5 | 0.432 | > 5 | 1070 | > 5 | > 5 | 245 | – | – | – | – | – | – | – | – | Cc1cc2cc(n1)-c1cnn(C)c1OCCN1CC3CCC(C3)(C1)n1c(nc3ccc(N4CCN(C)CC4)cc31)NC2=O (single isomer, unassigned) [Example B9A, 15,21-Dimethyl-5-(4-methylpiperazin-1-yl)-23-oxa-2,9,11,16,20,21,26-heptaazaheptacyclo[24.4.1.1^{1,28}.1^{13,17}.0^{2,10}.0^{3,8}.0^{18,22}]tritriaconta-3,5,7,9,13,15,17(33),18(22),19-nonaen-12-one] | GI50 (PC-9; Homo sapiens, PC-9, 72 h): 438 nM; GI50 ([1]; Mus musculus, BaF3, 72 h, BaF3 cells, EGFR DEL19 - C797S, read-out: GI50 DEL19 - C797S/BaF3): 83 nM; GI50 ([1]; Mus musculus, BaF3, 72 h, BaF3 cells, EGFR DEL19 - T790-C797S, read-out: GI50 DEL19 - T790-C797S/BaF3): 107 nM; GI50 ([1]; Mus musculus, BaF3, 72 h, BaF3 cells, EGFR L858R - C797S, read-out: GI50 L858R - C797S/BaF3): 386 nM; GI50 ([1]; Mus musculus, BaF3, 72 h, BaF3 cells, EGFR L858R - T790-C797S, read-out: GI50 L858R - T790-C797S/BaF3): 46 nM; GI50 ([1]; Mus musculus, BaF3, 72 h, BaF3 cells, EGFR L858R - T790M, read-out: GI50 L858R - T790M/BaF3): 253 nM; GI50 ([1]; Mus musculus, BaF3, 72 h, BaF3 cells, EGFR L858R, read-out: GI50 L858R/BaF3): 471 nM; GI50 ([1]; Mus musculus, BaF3, 72 h, EGFR DEL19 - T790M, read-out: GI50 DEL19 - T790M): 135 nM
2 | – | – | – | – | – | – | – | – | – | 950 | 212 | 164 | 312 | 41 | 194 | 877 | 258 | Cc1cc2cc(n1)-c1cnn(C)c1OCCN1CC3CCC(C3)(C1)n1c(nc3ccc(N4CCC(N(C)C)CC4)cc31)NC2=O (single isomer, unassigned) [Example B40A, 5-[4-(dimethylamino)piperidin-1-yl]-15,21-dimethyl-23-oxa-2,9,11,16,20,21,26-heptaazaheptacyclo[24.4.1.1^{1,28}.1^{13,17}.0^{2,10}.0^{3,8}.0^{18,22}]tritriaconta-3,5,7,9,13,15,17(33),18(22),19-nonaen-12-one] | IC50 (EGFR (d746-750 C797S); IC50 @Del19-C797S): 2480 nM; IC50 (EGFR L858R; IC50 @L858R): > 5 µM; IC50 (EGFR L858R/T790M; IC50 @L858R-T790M): > 5 µM; IC50 (EGFR Exon19Del; IC50 @Del19, EGFR Exon19Del): > 5 µM; IC50 (EGFR[T790M/C797S/L858R]; IC50 @T790M- C797S - L858R): > 5 µM; IC50 (EGFR Exon19Del/T790M; IC50 @Del19-T790M): 430 nM; IC50 (EGFR (C797S L858R); IC50 @L858-C797S): > 5 µM; IC50 (EGFR wild type; IC50 @WT): > 5 µM; IC50 ([2]; IC50 @T790M - C797S - Del19, EGFR[T790M/C797S/d746-750]): 123 nM
3 | > 5000 | > 5 | > 5 | > 5 | > 5 | 3670 | > 5 | > 5 | 1300 | 2300 | 302 | 436 | 776 | 39 | 315 | 2790 | 348 | Cc1cc2cc(n1)-c1cnn(C)c1OCCN1CC3CCC(C3)(C1)n1c(nc3ccc(N4CC[C@H](N(C)C)C4)cc31)NC2=O (single isomer, unassigned) [Example B41A] | –
4 | > 5000 | > 5 | > 5 | > 5 | > 5 | 2480 | > 5 | > 5 | 1080 | 1590 | 865 | 476 | 602 | 75 | 354 | 1770 | 468 | Cc1cc2cc(n1)-c1cnn(C)c1OCCN1CC3CCC(C3)(C1)n1c(nc3ccc(N4CC[C@@H](N(C)C)C4)cc31)NC2=O (single isomer, unassigned) [Example B42A] | –
5 | 7 | 0.051 | 0.0099 | 0.013 | 0.0057 | 10 | 0.015 | 0.734 | 6.3 | 9 | 2 | 2 | 3 | 2 | 2 | 5 | 2 | Cc1cc2cc(n1)-c1cnn(C)c1OCCN1CC3CCC(C3)(C1)n1c(nc3ccc(N4CC[C@@H](N(C)C)C4)cc31)NC2=O (single isomer, unassigned) [Example B42B] | –
6 | > 5000 | > 5 | > 5 | > 5 | > 5 | 1160 | > 5 | > 5 | 200 | 1320 | 193 | 200 | 442 | 68 | 305 | 998 | 271 | Cc1cc2cc(n1)-c1cnn(C)c1OCCN1CC3CCC(C3)(C1)n1c(nc3ccc(N4CC5CN(C)CC5C4)cc31)NC2=O (single isomer, unassigned) [Example B43A] | –
7 | > 5000 | > 5 | > 5 | > 5 | > 5 | > 5000 | > 5 | > 5 | 4530 | 2300 | 470 | 454 | 850 | 114 | 392 | 3200 | 1210 | Cc1cc2cc(n1)-c1cnn(C)c1OCCN1CC3CCC(C3)(C1)n1c(nc3ccc(N4CCC(N5CCOCC5)C4)cc31)NC2=O (single isomer, unassigned) [Example B44A1] | –
8 | > 5000 | > 5 | > 5 | > 5 | > 5 | > 5000 | > 5 | > 5 | > 5000 | 3560 | 873 | 1290 | 3820 | 343 | 1080 | 9400 | 3760 | Cc1cc2cc(n1)-c1cnn(C)c1OCCN1CC3CCC(C3)(C1)n1c(nc3ccc(N4CCC(N5CCOCC5)C4)cc31)NC2=O (single isomer, unassigned) [Example B44A2] | –
